Among the test systems are M14; MDA-MB-231; ACHN; TK-10; NCI-H23; OVCAR-3; SK-MEL-2; NCI-H460; T47D; Malme-3M; HCT-116; U-251; NCI-H522; Hs-578T; SK-MEL-5; SW-620; SNB-75; SR; HCC 2998.
What all share (assay): inhibition of tumour cell growth, NCI panel, 48 h

The structures appear in SMILES notation.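 96-well plates; 48 h exposure; 5 concentrations. Endpoints by linear interpolation between flanking doses. Not reached: highest tested concentration assigned. GI50 marks 50% less growth.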 The source made the active and inactive calls. No stated cut-off is given here; in the data, active = GI50 up to about 1.1 µM and inactive = higher. Bounds are passed on as bounds.

For the molecule `O=C1N/C(=N/N=C/c2c[nH]c3ccccc23)N/C1=C\c1c[nH]c2ccccc12`, the GI50 was 29 µM (inactive) with M14; 20 µM (inactive) in the experiment with MDA-MB-231; 21.3 µM (inactive) in the experiment with ACHN; 94.2 µM (inactive) in the experiment on TK-10; 18.2 µM (inactive) with NCI-H23; 14.7 µM (inactive) with OVCAR-3. Moreover, the GI50 is 20.3 µM (inactive) with SK-MEL-2; 36.8 µM (inactive) with NCI-H460; 17.5 µM (inactive) in the experiment with T47D; 15.5 µM (inactive) with Malme-3M; 19.1 µM (inactive) in the experiment with HCT-116; 17.3 µM (inactive) in the experiment with U-251. The GI50 is 11.9 µM (inactive) with NCI-H522; 18.7 µM (inactive) with Hs-578T; 19.6 µM (inactive) in the experiment on SK-MEL-5; 18.2 µM (inactive) with SW-620; 28.6 µM (inactive) in the experiment on SNB-75.

Take `CCCC(CCC(N)=O)(CCC(N)=O)[N+](=O)[O-]`: the GI50 in the experiment on M14, with MDA-MB-231, in the experiment on ACHN, in the experiment on TK-10, in the experiment on NCI-H23 and with SK-MEL-2 was > 100 µM (inactive) in each case. Besides, the GI50 in the experiment on NCI-H460 was > 100 µM (inactive); in the experiment with T47D, > 100 µM (inactive); with Malme-3M, > 100 µM (inactive); with HCT-116, > 100 µM (inactive); in the experiment on U-251, > 100 µM (inactive); with NCI-H522 it was 26.5 µM (inactive). Further, the GI50 in the experiment on SR, in the experiment on Hs-578T, in the experiment with SK-MEL-5, in the experiment with SW-620 and in the experiment on SNB-75 was > 100 µM (inactive) in each case.

On to `CCOc1c(Br)cc(Br)cc1C=C(C#N)C#N`, for which the GI50 in the experiment on ACHN is 2.77 µM (inactive); in the experiment with TK-10, 5.43 µM (inactive); in the experiment with NCI-H23 it was > 10 µM (inactive); in the experiment with OVCAR-3 it was > 10 µM (inactive); in the experiment with SK-MEL-2, > 10 µM (inactive); in the experiment with NCI-H460, > 10 µM (inactive). The GI50 was > 10 µM (inactive) with T47D; > 10 µM (inactive) in the experiment with Malme-3M; 0.405 µM (active) in the experiment with HCT-116; 3.52 µM (inactive) with U-251; 0.916 µM (active) in the experiment with SR; 3.67 µM (inactive) in the experiment with Hs-578T. In addition, the GI50 in the experiment with SK-MEL-5 is 3.61 µM (inactive); with SW-620 it was 2.23 µM (inactive); in the experiment with SNB-75 it was 7.62 µM (inactive); with HCC 2998 it was > 10 µM (inactive).

Turning to `COc1cc(C2c3cc4c(cc3OC(NNS(=O)(=O)c3ccc(C)cc3)C2C)OCO4)cc(OC)c1O` (stereo not drawn), the GI50 is 15.6 µM (inactive) with M14; 12.3 µM (inactive) with MDA-MB-231; 7.98 µM (inactive) in the experiment on ACHN; 5.41 µM (inactive) in the experiment with TK-10; 9.89 µM (inactive) in the experiment on NCI-H23; 13.7 µM (inactive) in the experiment with OVCAR-3. Moreover, the GI50 in the experiment on NCI-H460 was 5.85 µM (inactive); in the experiment with T47D, 10.1 µM (inactive); in the experiment on Malme-3M, 5.85 µM (inactive); in the experiment on HCT-116 it was 9.44 µM (inactive); with U-251, 8.17 µM (inactive); in the experiment with NCI-H522, 25 µM (inactive). For the same molecule, the GI50 is 16.9 µM (inactive) in the experiment with Hs-578T; 9.75 µM (inactive) with SK-MEL-5; 24.3 µM (inactive) in the experiment on SW-620; 3.61 µM (inactive) with SNB-75; 23.7 µM (inactive) in the experiment with HCC 2998.

As for `COCc1nc2c(OC)c(-c3nc4ccc(N5CCN(C)CC5)nc4[nH]3)cc(OC)c2n1C`, the GI50 was 21.3 µM (inactive) in the experiment with M14; 17.7 µM (inactive) in the experiment with MDA-MB-231; 17.5 µM (inactive) with ACHN; 58.3 µM (inactive) in the experiment with NCI-H23; 53.6 µM (inactive) in the experiment on OVCAR-3; 22 µM (inactive) in the experiment on SK-MEL-2. The GI50 is 26.4 µM (inactive) in the experiment on NCI-H460; 38.6 µM (inactive) in the experiment on T47D; 19.4 µM (inactive) in the experiment with Malme-3M; 41.3 µM (inactive) with HCT-116; 21.7 µM (inactive) with U-251; 27.4 µM (inactive) in the experiment on NCI-H522. Further, the GI50 was 55.3 µM (inactive) with Hs-578T, 28.6 µM (inactive) with SW-620, 18.5 µM (inactive) with SNB-75 and 14.4 µM (inactive) in the experiment with HCC 2998.

Consider `O=C(O)CCC(=O)c1ccc[nH]1`, for which the GI50 with M14, in the experiment on MDA-MB-231, with ACHN, in the experiment on TK-10, in the experiment with NCI-H23 and in the experiment on OVCAR-3 was > 100 µM (inactive) each time. In addition, the GI50 in the experiment with SK-MEL-2, in the experiment on NCI-H460, in the experiment on T47D, with Malme-3M, in the experiment on HCT-116 and in the experiment on U-251 was > 100 µM (inactive) in each case. The GI50 in the experiment on NCI-H522, with SR, in the experiment on Hs-578T, in the experiment with SK-MEL-5 and in the experiment on SNB-75 was > 100 µM (inactive) in each case.

Regarding `C/C(=N\NC(=S)N/N=C(\C)c1ccccn1)c1ccccn1`, the GI50 was 1.27 µM (inactive) with M14; 21.5 µM (inactive) with MDA-MB-231; 1.27 µM (inactive) in the experiment with ACHN; > 100 µM (inactive) in the experiment with TK-10; 4.6 µM (inactive) with NCI-H23; 0.656 µM (active) with OVCAR-3. The GI50 was 0.533 µM (active) with NCI-H460; 6.31 µM (inactive) with T47D; 2.38 µM (inactive) in the experiment with Malme-3M; 1.84 µM (inactive) in the experiment on HCT-116; 0.771 µM (active) with U-251; 6.49 µM (inactive) in the experiment with NCI-H522. For the same molecule, the GI50 in the experiment on SR was 2.18 µM (inactive); in the experiment with Hs-578T, 31.8 µM (inactive); in the experiment on SK-MEL-5, 4.61 µM (inactive); with SW-620 it was 1.75 µM (inactive); in the experiment on SNB-75, 5.93 µM (inactive).

Regarding `C=CCOc1ccc(C2C(C(=O)OC)C(=O)CC(O)(c3ccccc3)C2C(=O)OC)cc1OC` (stereo not drawn), the GI50 was 18.4 µM (inactive) in the experiment on MDA-MB-231; 38.1 µM (inactive) in the experiment with ACHN; 33.7 µM (inactive) with TK-10; 31.8 µM (inactive) with NCI-H23; 45.6 µM (inactive) in the experiment on OVCAR-3; 26.4 µM (inactive) in the experiment on SK-MEL-2. For the same molecule, the GI50 was 30.3 µM (inactive) in the experiment with NCI-H460; 20.8 µM (inactive) in the experiment with T47D; 31.6 µM (inactive) in the experiment with Malme-3M; 20 µM (inactive) in the experiment with HCT-116; 32 µM (inactive) in the experiment on U-251; 22.4 µM (inactive) in the experiment with NCI-H522. Also, the GI50 in the experiment on SR was 27.4 µM (inactive); in the experiment with SK-MEL-5, 35.3 µM (inactive); in the experiment with SW-620, > 100 µM (inactive); in the experiment on SNB-75 it was 26.9 µM (inactive); with HCC 2998 it was 40.5 µM (inactive).

For the molecule `O=c1[nH]c(=S)c2cc3c(=S)[nH]c(=O)n(CCO)c3nc2n1CCO`, the GI50 with M14, with MDA-MB-231, with ACHN, in the experiment with TK-10, with NCI-H23 and in the experiment with OVCAR-3 was > 100 µM (inactive) in each case. The GI50 in the experiment on SK-MEL-2, in the experiment on NCI-H460, in the experiment on T47D, in the experiment with Malme-3M, in the experiment with HCT-116 and in the experiment on U-251 was > 100 µM (inactive) throughout. The GI50 in the experiment with NCI-H522, in the experiment with SR, with SK-MEL-5, with SW-620, in the experiment on SNB-75 and in the experiment on HCC 2998 was > 100 µM (inactive) each time.

`CC[C@@H]1CC[C@@H]2[C@H](CC[C@]3(C)[C@@H](OC(C)=O)CC[C@@H]23)[C@H]1C(=O)OC`: the GI50 in the experiment on M14 was 19.6 µM (inactive); in the experiment with MDA-MB-231, 20.6 µM (inactive); in the experiment on ACHN, 40 µM (inactive); with TK-10, > 100 µM (inactive); in the experiment on NCI-H23, 24.4 µM (inactive); in the experiment on OVCAR-3 it was 19.4 µM (inactive). For the same molecule, the GI50 in the experiment on SK-MEL-2 is 20.1 µM (inactive); in the experiment on NCI-H460, 23 µM (inactive); with T47D, 21.8 µM (inactive); in the experiment on Malme-3M it was 17.3 µM (inactive); in the experiment on HCT-116, 17.9 µM (inactive); in the experiment with U-251, 21.2 µM (inactive). The GI50 is 27.2 µM (inactive) in the experiment with NCI-H522; 46.1 µM (inactive) in the experiment on Hs-578T; 14.6 µM (inactive) in the experiment with SK-MEL-5; 21.8 µM (inactive) in the experiment on SW-620; 22.3 µM (inactive) in the experiment on SNB-75; 97.9 µM (inactive) in the experiment on HCC 2998.

Regarding `Cc1cc2nc3c(C#N)c4c(c(-c5ccc(Cl)cc5)n3c2cc1C)CCC4`, the GI50 was 17.5 µM (inactive) in the experiment on M14; 22.2 µM (inactive) with MDA-MB-231; 24.2 µM (inactive) with ACHN; 22.1 µM (inactive) in the experiment with TK-10; 19.1 µM (inactive) with NCI-H23; 20.3 µM (inactive) in the experiment with OVCAR-3. In addition, the GI50 is 19 µM (inactive) in the experiment on SK-MEL-2; 43.2 µM (inactive) in the experiment with NCI-H460; 22.3 µM (inactive) in the experiment with T47D; 23.3 µM (inactive) with Malme-3M; 18.7 µM (inactive) in the experiment on HCT-116; 28.8 µM (inactive) in the experiment with U-251. Also, the GI50 is 18.7 µM (inactive) with NCI-H522; 23.8 µM (inactive) in the experiment with SR; 25.1 µM (inactive) in the experiment on Hs-578T; 19.6 µM (inactive) with SK-MEL-5; 30.4 µM (inactive) with SW-620.

For the molecule `CC(=O)Nc1ccc(/N=N\c2c(O)c(S(=O)(=O)O)cc3cc(S(=O)(=O)O)ccc23)cc1`, the GI50 in the experiment on M14, with MDA-MB-231, in the experiment with ACHN, in the experiment with TK-10, in the experiment on NCI-H23 and with OVCAR-3 was > 100 µM (inactive) throughout. The GI50 in the experiment with SK-MEL-2, in the experiment with T47D, in the experiment with Malme-3M, with HCT-116, in the experiment with U-251 and in the experiment on NCI-H522 was > 100 µM (inactive) each time. In addition, the GI50 in the experiment on Hs-578T, with SK-MEL-5, in the experiment with SW-620 and in the experiment with SNB-75 was > 100 µM (inactive) throughout.

The values above are taken from ChEMBL document CHEMBL1201862, “PubChem BioAssay data set” (2004).
